These results are taken from US6391876B1 (Pharmacia and Upjohn Company, priority 1998, dated 2002).

For assay [1], the system named is patients with panic Disorder with or without Agoraphobia.
Assay [2] concerns muscarinic cholinergic receptors. Briefly: interaction with muscarinic cholinergic receptors. Type of assay: binding.
For assay [3] the following is noted: in vivo; cited from earlier work.
Assay [4] concerns patients with a DSM-III-R diagnosis of Obsessive Compulsive Disorder. Put plainly: trial in patients with Obsessive Compulsive Disorder. It is filed as in vivo, human. Particulars: 10 OCD patients, 3 to 4 weeks, 6 mg first week then 8 mg per day.
The test system of the next assay is I-adrenerigic receptors. Put plainly: interaction with I-adrenerigic receptors. Type of assay: binding.
The subject of a further assay is dopamine uptake. From the text: (§1) Leonard-BE, “Noradrenaline in basic models of depression.” European-Neuropsychopharmacol. April 1997; 7 Suppl 1: S11-6; discussion S71-3.
The test system of another assay is serotonin uptake.
Text: as §1

For a further assay, the system named is monoamine oxidase (MAO).
Text: as §1

The subject of another assay is norepinephrine uptake.
Text: as §1

The mark [5] stands for this setting: vs placebo, at some point in time.

The structures appear in SMILES notation.

On to `CCOc1ccccc1OC(c1ccccc1)C1CNCCO1` (stereo not drawn) [reboxetine], for which, in assay [1] (37 patients on reboxetine vs 38 on placebo), the “mean number of major panic attacks” value is on record as “significantly lower than for those on placebo”. For the same molecule, in assay [1] (setting [5]), the anticipatory anxiety result was “better”; the phobic symptoms entry was “better”; the “social and family adjustment” value is on record as “better”. The “interaction with muscarinic cholinergic receptors” value in assay [2] is listed as “without showing any appreciable interaction”. The “effect in the 8-OH-DPAT hypothermia test” value in assay [3] is “ineffective”. Besides, in assay [4], the “patients judged minimally improved at CGI last assessment” value was 2, the “patients judged much improved at CGI last assessment” value is on record as 4, the “patients judged very much improved at CGI last assessment” value is recorded as “one” and the “patients unchanged at CGI last assessment” value was determined as 3. Besides, the “interaction with I-adrenerigic receptors” value in the assay with I-adrenerigic receptors is given as “without showing any appreciable interaction”. In the assay with dopamine uptake, the “dopamine uptake inhibitory activity” value was “no dopamine uptake inhibitory activity”. Besides, the “serotonin uptake inhibitory activity” value in the assay on serotonin uptake is listed as “only marginal”. Also, the “monoamine oxidase (MAO) inhibitory activity” value in the assay with monoamine oxidase (MAO) is on record as “devoid of monoamine oxidase (MAO) inhibitory activity”. Besides, the “norepinephrine uptake inhibitory activity” value in the assay on norepinephrine uptake was “highly selective norepinephrine uptake inhibitor”.
